Test results reported in ChEMBL document CHEMBL5441456, “ASAP - SARS-CoV-2 nsp3 macrodomain dose response” (2024).
Where “and” joins values, the source holds several entries; their conditions need not be identical. Equal entries are not always repeated.

Target: Replicase polyprotein 1ab (Severe acute respiratory syndrome coronavirus 2, UniProt P0DTD1)
Assay: Functional biochemical assay to identify treatments for viral infectious disease that targets SARS-COV-2 nsp3 macrodomain, whereby the mechanism of action displaces an ADP-Ribose modified peptide from the binding site. Utilizing a time-resolved fluorescence method to measure binding by reading the emitted fluorescence intensity in two wavelengths.

Row | Structure (SMILES) | IC50
1 | CC(C)[C@@H](Nc1ncnc2[nH]ccc12)c1ccc(F)c(C#N)c1 | 4.15 µM and 16.6 µM
2 | Cc1cccc(Cl)c1-n1sc(=O)n(CC2CC2)c1=O | 23 µM
3 | CCNC(=O)c1cc2c(N[C@@H](CCc3cccc(NS(C)(=O)=O)c3)C(C)C)ncnc2[nH]1 | > 99.5 µM
4 | CCNC(=O)c1cc2c(NC3(c4ccc5c(c4)S(=O)(=O)CCC5)CCC3)ncnc2[nH]1 | 3.05 µM
5 | CC(=O)c1ccc(S(=O)(=O)Nc2cnc3[nH]ccc3c2)cc1 | > 99.5 µM
6 | CC(C)(C)[C@H](Nc1ncnc2[nH]c(-c3cnn(CC(N)=O)c3)cc12)c1ccc2c(n1)OCCO2 | 14.1 µM and 10.7 µM
7 | CS(=O)(=O)Nc1ccc([C@@H](CC(=O)O)NC(=O)c2ncnc3[nH]ccc23)cc1 | 12.1 µM and 10 µM
8 | O=C(Nc1ccc2c(C(=O)N[C@@H]3c4ccccc4C[C@@H]3C(=O)O)cnn2c1)NC1CC1 | 63.8 µM and 49.3 µM
9 | CC(C)[C@@H](Nc1ncnc2[nH]ccc12)c1ccc2c(c1)S(=O)(=O)N(C)CC2 | 5.76 µM and 17 µM
10 | CC(C)[C@H](Nc1ncnc2[nH]c(-c3cnn(CC(=O)N(C)C)c3)cc12)c1ccc2c(c1)S(=O)(=O)CCC2 | 5.56 µM and 4.26 µM
11 | CC(C)[C@H](Nc1ncnc(O)c1Cl)c1ccc2c(c1)S(=O)(=O)CCC2 | > 99.5 µM
12 | CC(C)[C@@H](Nc1ncnc2[nH]c(C(=O)NCCn3cncn3)cc12)c1ccc2c(c1)OCCO2 | 1.78 µM
13 | CCOC(=O)C1=C(Nc2cc(C)cc(C)c2)OCC1=O | > 99.5 µM
14 | COC[C@@H]1C[C@@H]1CNc1ccc([C@@H](CC(=O)O)NC(=O)c2ncnc3[nH]ccc23)cc1 | 44.5 µM and 43.9 µM
15 | CNCc1cc(-c2cc3c(N[C@@H](c4ccc5c(c4)OCCO5)C(C)C)ncnc3[nH]2)co1 | 0.281 µM and 0.383 µM
16 | CS(=O)(=O)NC1CCC(Nc2ccc([C@@H](CC(=O)O)NC(=O)c3c[nH]c4ncncc34)cc2)CC1 (some centres undefined) | > 99.5 µM
17 | C[C@@H](CO)Nc1ncnc2[nH]c(C(=O)OC(C)(C)C)cc12 | > 124 µM
18 | CC(C)[C@@H](c1ccc2c(c1)OCCO2)N(C)c1ncnc2[nH]c(Br)cc12 | > 99.5 µM
19 | CNc1nc(N[C@@H](c2ccc3c(c2)OCCO3)C(C)C)c2cc[nH]c2n1 | > 99.5 µM
20 | O=C(Nc1cccc2c(C(=O)N[C@@H](CO)c3ccc4c(c3)OCCO4)c[nH]c12)NC1CC1 | > 99.5 µM
21 | O=C(O)C[C@@H](NC(=O)c1cccc2[nH]ncc12)c1ccc(Br)cc1 | > 99.5 µM
22 | CNC(=O)c1cc2c(N[C@@H](c3ccc4c(c3)NC(=O)CO4)C(C)C)ncnc2[nH]1 | 0.164 µM and 0.143 µM and 0.163 µM and 0.154 µM
23 | CNCc1cc(-c2cc3c(N[C@@H](c4ccc5c(c4)NC(=O)CO5)C(C)C)ncnc3[nH]2)co1 | 0.313 µM and 0.187 µM

Row | Structure (SMILES) | IC50
24 | Cc1[nH]c2ncnc(NC(=O)c3cncc(Cl)n3)c2c1C | > 99.5 µM
25 | CC(C)[C@@H](Nc1ncnc2[nH]ccc12)c1ccc2c(c1)S(=O)(=O)CO2 | 3.62 µM and 2.35 µM
26 | NS(=O)(=O)c1ccccc1CNc1ncnc2[nH]ccc12 | > 124 µM
27 | CC(C)[C@@H](Nc1ncnc2[nH]c(-c3cnc4n3CCC4)cc12)c1ccc2c(c1)S(=O)(=O)CCC2 | 0.051 µM and 0.043 µM and 0.065 µM and 0.046 µM and 0.052 µM
28 | CC(C)[C@@H](Nc1ncnc2[nH]ccc12)c1ccc2c(c1)N(C)C(=O)CO2 | 67.7 µM and 67.4 µM
29 | CC(C)[C@@H](Nc1ccnc2[nH]ccc12)c1ccc2c(c1)S(=O)(=O)CCC2 | > 99.5 µM
30 | CNC(=O)c1cccc([C@@H](CC(=O)O)NC(=O)c2ncnc3[nH]ccc23)c1 | 18.7 µM and 17.4 µM
31 | CC(C)[C@@H](Nc1ncnc2c1OCCO2)c1ccc2c(c1)S(=O)(=O)CCC2 | > 99.5 µM
32 | COC(=O)C[C@@H](NC(=O)c1ncnc2[nH]ccc12)c1ccc(Br)cc1 | > 99.5 µM
33 | Cc1cc(-c2cc3c(N[C@@H](c4ccc5c(c4)OCCO5)C(C)C)ncnc3[nH]2)[nH]n1 | 2.56 µM and 3.09 µM
34 | CC(C)[C@@H](Nc1ncnc2[nH]c([C@@]3(O)CCCNC3)cc12)c1ccc2c(c1)OCCO2 | 17.8 µM and 13.9 µM
35 | Cc1ccc(C(=O)Nc2ncnc3[nH]c(C)c(C)c23)cn1 | > 99.5 µM
36 | COC(=O)c1cc2c(N[C@@H](c3ccc4c(c3)OCCO4)C(C)C)ncnc2[nH]1 | 5.31 µM and 6.5 µM
37 | C[C@@H](Cc1ccc(Cl)s1)Nc1ccc([C@@H](CC(=O)O)NC(=O)c2ncnc3[nH]ccc23)cc1 | 46.5 µM and 46.7 µM
38 | Cc1[nH]c2ncnc(C(=O)Nc3ccnc(Cl)c3)c2c1C | > 99.5 µM
39 | CC(C)[C@@H](Nc1ncnc2[nH]ccc12)c1ccc2c(c1)CCNC2=O | 15.3 µM and 15 µM
40 | CC(C)[C@@H](Nc1ncnc2[nH]c(-c3cnoc3)cc12)c1ccc2c(c1)OCCO2 | 29.9 µM and > 99.5 µM
41 | O=C(N[C@@H](C(=O)O)c1ccc(Br)cc1)c1ncnc2[nH]ccc12 | 52.1 µM and 62.9 µM
42 | O=C(Nc1ccc(C(=O)Nc2c(C(=O)O)sc3ccncc23)cc1)NC1CC1 | > 99.5 µM
43 | Cc1ccoc1-c1cc2c(N[C@@H](c3ccc4c(c3)OCCO4)C(C)C)ncnc2[nH]1 | 43.9 µM and 39.7 µM
44 | Cc1ncn(C)c1NC(=O)c1cc2c(N[C@@H](c3ccc4c(c3)OCCO4)C(C)C)ncnc2[nH]1 | 10.7 µM and 19.7 µM
45 | CC(C)[C@@H](Nc1ncnc2[nH]c(-c3cc(-c4ccccc4)n[nH]3)cc12)c1ccc2c(c1)OCCO2 | > 99.5 µM
46 | O=C(O)C[C@@H](NC(=O)c1ncnc2[nH]ccc12)c1ccc(Nc2nnco2)cc1 | 6.57 µM and 5.48 µM

Row | Structure (SMILES) | IC50
47 | CC(C)[C@H](Nc1ncnc(N)c1Cl)c1ccc2c(c1)S(=O)(=O)CCC2 | 2.94 µM and 1.56 µM
48 | O=C(Nc1ccc(C(=O)Nc2c(C(=O)O)oc3cc(Br)ccc23)cc1)NC1CC1 | > 99.5 µM
49 | CC(=O)Nc1ccc(C(=O)Nc2ncnc3[nH]c(C)c(C)c23)cc1Cl | > 99.5 µM
50 | Cc1ccc(-c2n[nH]cc2CNc2cnc3[nH]ncc3c2)o1 | > 124 µM
51 | Cc1nn(CC(C)C)c(Cl)c1[C@@H]1CCCN1c1ncnc2[nH]ccc12 | > 99.5 µM
52 | C[C@@H](O)[C@@H](NC(=O)c1csc2c(NC(=O)NC3CC3)ncnc12)c1ccccc1F | > 99.5 µM
53 | CC(C)[C@@H](Nc1ncnc2[nH]c(-c3ccc(C4(C#N)CC4)cc3)cc12)c1ccc2c(c1)OCCO2 | > 99.5 µM
54 | CCn1ncc(-c2cc3c(N[C@@H](c4ccc5c(c4)OCCO5)C(C)C)ncnc3[nH]2)c1C#N | 0.857 µM and 0.8 µM
55 | Cc1ccc(C(=O)N2CCC(c3ccn4ncc(C(=O)N[C@@H]5CCC[C@@H]5C(=O)O)c4c3)CC2)cc1 | 20.7 µM and 21.8 µM
56 | C[C@@H](C(=O)O)[C@H](NC(=O)c1ncnc2[nH]ccc12)c1ccc(Br)cc1 | 2.85 µM and 0.982 µM and 1.03 µM
57 | c1nc(N[C@@H](c2ccc3c(c2)OCCO3)[C@@H]2CCN2)c2cc[nH]c2n1 | > 99.5 µM
58 | COc1ccc(C(=O)Nc2ncnc3[nH]c(C)c(C)c23)cn1 | > 99.5 µM
59 | COc1ccc([C@@H](CC(=O)O)NC(=O)c2cc3cccc(NC(=O)NC4CC4)c3[nH]2)cc1 | > 99.5 µM
60 | CC(C)[C@@H](Nc1ncnc2[nH]c(-c3[nH]ncc3C3CC3)cc12)c1ccc2c(c1)OCCO2 | 16.1 µM and 14.3 µM
61 | O=C(N[C@@H](CO)Cc1ccncc1)c1ncnc2[nH]ccc12 | > 99.5 µM
62 | CC(C)[C@@H](Nc1ncnc2[nH]ccc12)c1ccc2c(c1)[S+]([O-])CCO2 (some centres undefined) | 0.604 µM and 0.628 µM
63 | CC(C)[C@@H](Nc1ncnc2[nH]c(-c3cccc(C#N)c3)cc12)c1ccc2c(c1)OCCO2 | 17.8 µM and 22.1 µM
64 | O=C(Nc1cccc2c(C(=O)N[C@@H](C(=O)O)c3ccc4c(c3)OCCO4)c[nH]c12)NC1CC1 | > 99.5 µM
65 | CNC(=O)c1cccc(-c2cc3c(N[C@@H](c4ccc5c(c4)OCCO5)C(C)C)ncnc3[nH]2)c1 | 0.416 µM and 0.475 µM and 0.383 µM
66 | CC(C)[C@@H](Nc1cc(N)ncn1)c1ccc2c(c1)S(=O)(=O)CCC2 | 43.8 µM
67 | CC(C)[C@H](Nc1nc(N)ncc1Cl)c1ccc2c(c1)S(=O)(=O)CCC2 | > 99.5 µM
68 | COc1nn(C)cc1-c1cc2c(N[C@@H](c3ccc4c(c3)OCCO4)C(C)C)ncnc2[nH]1 | 1.79 µM and 1.91 µM
69 | CC(C)[C@@H](Nc1ncnc2[nH]c(-c3ccnn3C)cc12)c1ccc2c(c1)OCCO2 | 0.699 µM and 0.883 µM and 0.832 µM
